Results reported in patent US20250163119A1, “COMPOUNDS FOR THE TREATMENT OF DIABETES OR OBESITY” (Eli Lilly and Company, priority 2023, published 2025).
Values joined by “and” are separate entries in the source; they are usually repeats but may differ in a detail not shown here. Identical values can stand only once. *1 amine or outer side, *2 acyl side, *3 side chain or, on linkers, in order; H or OH if unused. [ ]: non-standard residue; d: D form. The star is where a group is joined. C20 diacid = O=C(O)CCCCCCCCCCCCCCCCCCC(=O)*; γGlu = O=C(O)[C@H](CCC(=O)[*:2])N[*:1]; εLys = N[C@@H](CCCCN[*:1])C(=O)[*:2]; αMeL = CC(C)C[C@](C)(N)C(=O)O; AEEA = NCCOCCOCC(=O)O; Aib = CC(C)(N)C(=O)O

Assays:
CD4+ T cells = assay: T cell proliferation assay; assay type: cell-based, human; conditions: responding donors / donors tested
Experimental: This assay assessed the ability of tested antibodies or tested MAPPS peptides to activate CD4+ T cells by inducing cellular proliferation. CD8+ T cell depleted PBMC's were prepared and labeled with CFSE. Each sample was tested with media control, keyhole limpet haemocyanin (KLH; positive clinical benchmark control), tested antibodies, or tested MAPPS peptides. Cultures were incubated for 7 days. On day 7, samples were analyzed by flow cytometry.

[1] = Pharmacokinetics in Yucatan mini-pigs, single subcutaneous or intravenous dose; assay type: in vivo; conditions: for Tmax: read-out: Tmax
Experimental: Plasma concentrations of compounds were determined by LC/MS methods. For each assay, the compound and an internal standard (IS), were extracted from 100% mouse, rat, pig, or monkey plasma (70 μL) using Isopropanol-Methanol. Two distinct layers were formed upon centrifugation with the compound and the IS located in the supernatant layer. An aliquot of the supernatant (150 μL) was transferred to a Waters Sirocco Protein Precipitation Plate. The supernatant was eluted using a positive pressure manifold. The supernatant was mixed with 100-2 Water-Formic acid (400 μL) in a pretreated Sep-Pak tC18 SPE plate and eluted to waste. The peptide and IS were eluted with Acetonitrile-Formic acid (100 μL) in 2 steps (50 μL each step). The elution (40 μL) from SPE plate was mixed with diluent solution (1.875 μL 5× invitrosol and 3.125 μL 1% formic acid in water, 80 μL). A final sample (10 μl) was loaded onto a Xselect CSH C18 IS column (3.5 μm 2.1×20 mm). The column effluent was directed into a Thermo Fisher Scientific Orbitrap (Exploris 240) mass spectrometer for detection and quantitation.
Male Yucatan mini-pigs were administered a single subcutaneous dose or intravenous dose (19 or 99 nmol/kg) of compound in 40 mM Tris-HCl 5% D-mannitol (pH 8) at a volume of 0.01 or 0.05 mL/kg. Blood was collected from each animal at 0.083 (IV only), 0.5, 3, 6, 24, 48, 72, 96, 168, 240, 336, 408, and 504 hours postdose for pharmacokinetic characterization.

[2] = test system: MHC-II presented peptides on human dendritic cells; assay: MAPPS assay (MHC-Associated Peptide Proteomics); assay type: cell-based
Method in brief: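 CD14+ monocytes from healthy donor PBMCs were differentiated to immature DCs with IL-4/GM-CSF, exposed to test molecules on day 4 and matured with LPS on day 5. On day 6, MHC-II complexes were immunoprecipitated and eluted peptides identified by mass spectrometry; value is percentage of donors presenting peptides from each region.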

[3] = Pharmacokinetics in Sprague Dawley rats, single subcutaneous or intravenous dose (incl. 10, 30, 100 nmol/kg dose response); assay type: in vivo
[4] = male Yucatan pigs, single subcutaneous dose 19 nmol/kg, individual animal
[5] = male, Yucatan mini-pig, minipig, plasma, iv, 19 nmol/kg, single intravenous dose 19 nmol/kg, individual animal
[6] = male, Yucatan mini-pig, minipig, plasma, iv, 19 nmol/kg, single intravenous dose 19 nmol/kg, mean
[7] = male, Yucatan mini-pig, minipig, plasma, sc, 19 nmol/kg, single subcutaneous dose 19 nmol/kg, Mean
[8] = male, Yucatan mini-pig, minipig, plasma, sc, 19 nmol/kg, single subcutaneous dose 19 nmol/kg, individual animal
[9] = single intravenous dose 19 nmol/kg, male Yucatan pigs, individual animal
[10] = dose response, single subcutaneous dose 10 nmol/kg, male Sprague Dawley rats, individual animal
[11] = dose response, single subcutaneous dose 30 nmol/kg, male Sprague Dawley rats, individual animal
[12] = dose response, single subcutaneous dose 100 nmol/kg, male Sprague Dawley rats, individual animal
[13] = male Sprague Dawley rats, single intravenous dose 190 nmol/kg, individual animal
[14] = male, Sprague Dawley, rat, plasma, iv, 190 nmol/kg, single intravenous dose 190 nmol/kg, Mean
[15] = male, Sprague Dawley, rat, plasma, iv, 190 nmol/kg, single intravenous dose 190 nmol/kg, individual animal
[16] = single subcutaneous dose 190 nmol/kg, male Sprague Dawley rats, individual animal

{C20 diacid-εLys-AEEA-γGlu}-GSPSIVTS[αMeL]DVPT[Aib][αMeL]LQKILEQERAEKARQQATEAAEILAQV-NH2 [SEQ ID NO: 25]
T Cell Proliferation Assay: protein 7-10 donors with diverse MHC (CD4+ T cells): 0/9
AUC0-inf ([1]; Yucatan mini-pig, minipig, plasma, sc, male Yucatan pigs, single subcutaneous dose 19 nmol/kg, Mean, read-out: AUC0-inf): 27.6 µM·h
Cmax ([1]; Yucatan mini-pig, minipig, plasma, sc, male Yucatan pigs, single subcutaneous dose 19 nmol/kg, Mean, read-out: Cmax): 0.17 µM
AUC0-inf [1, 4]: 28.3 µM·h and 26.8 µM·h
CL/F [1, 4]: 0.012 mL/min/kg
Cmax [1, 4]: 0.159 µM and 0.181 µM
T1/2 [1, 4]: 70.4 h
clearance [1, 5]: 0.00755 mL/min/kg
half-life [1, 5]: 106 h
clearance [1, 6]: 0.00803 mL/min/kg
half-life [1, 6]: 96.4 h
half-life [1, 7]: 75.6 h
CL/F ([1]; male, Yucatan mini-pig, minipig, plasma, sc, 19 nmol/kg, single subcutaneous dose 19 nmol/kg, Mean, read-out: CL/F (converted)): 0.0116 mL/min/kg
Tmax [1, 7]: 24 h
half-life [1, 8]: 80.8 h
CL/F ([1]; male, Yucatan mini-pig, minipig, plasma, sc, 19 nmol/kg, single subcutaneous dose 19 nmol/kg, individual animal, read-out: CL/F (converted)): 0.0114 mL/min/kg
Tmax [1, 8]: 24 h
AUC0-inf ([1]; minipig, plasma, single intravenous dose 19 nmol/kg, male Yucatan pigs, mean, read-out: AUC0-inf): 39.6 µM·h
C0 ([1]; minipig, plasma, single intravenous dose 19 nmol/kg, male Yucatan pigs, mean, read-out: C0): 0.534 µM
AUC0-inf [1, 9]: 41.9 µM·h and 37.2 µM·h
C0 [1, 9]: 0.522 µM and 0.545 µM
CL [1, 9]: 0.0085 mL/min/kg
T1/2 [1, 9]: 86.8 h
MAPPS Assay >10 donors with diverse MHC ([2]; donors displaying MHC-II peptides / donors tested): 0/10
peptides displayed on MHC-II complexes ([2]; human dendritic cells from normal donors): no peptides displayed on MHC-II complexes
immunogenicity compared with SEQ ID NO:54 ([2]; in the MAPPs assay and/or the T cell proliferation assay): substantial improvements in immunogenicity over a compound comprising SEQ ID NO:54
MAPPS Assay >10 donors with diverse MHC ([2]; percentage of donors displaying MHC-II peptides): 0%
AUC0-inf [3, 10]: 1.05 µM·h and 0.972 µM·h and 1.11 µM·h
CL/F [3, 10]: 0.175 mL/min/kg and 0.152 mL/min/kg
Cmax [3, 10]: 0.0208 µM and 0.0219 µM and 0.0268 µM
T1/2 [3, 10]: 18.6 h and 31.5 h
Tmax [3, 10]: 6 h
AUC0-inf [3, 11]: 2.64 µM·h and 2.91 µM·h and 2.96 µM·h
CL/F [3, 11]: 0.173 mL/min/kg and 0.17 mL/min/kg
Cmax [3, 11]: 0.055 µM and 0.068 µM and 0.0591 µM
T1/2 [3, 11]: 19.6 h and 20.8 h
Tmax [3, 11]: 6 h
AUC0-inf [3, 12]: 12.5 µM·h and 14 µM·h and 13.4 µM·h
CL/F [3, 12]: 0.119 mL/min/kg and 0.124 mL/min/kg
Cmax [3, 12]: 0.239 µM and 0.316 µM and 0.328 µM
T1/2 [3, 12]: 17.4 h and 15.7 h
AUC0-inf [3, 13]: 41.3 µM·h and 46.9 µM·h and 61.8 µM·h
C0 [3, 13]: 1.61 µM and 3.54 µM and 3.61 µM
CL [3, 13]: 0.0673 mL/min/kg and 0.0512 mL/min/kg
T1/2 [3, 13]: 16.9 h and 18.2 h
clearance [3, 14]: 0.065 mL/min/kg
half-life [3, 14]: 17.5 h
clearance [3, 15]: 0.0765 mL/min/kg
half-life [3, 15]: 17.4 h
half-life ([3]; male, Sprague Dawley, rat, plasma, sc, 10 nmol/kg, dose response, single subcutaneous dose 10 nmol/kg, individual animal): 19.9 h
CL/F ([3]; male, Sprague Dawley, rat, plasma, sc, 10 nmol/kg, dose response, single subcutaneous dose 10 nmol/kg, individual animal, read-out: CL/F (converted)): 0.162 mL/min/kg
half-life ([3]; male, Sprague Dawley, rat, plasma, sc, 10 nmol/kg, dose response, single subcutaneous dose 10 nmol/kg, mean): 23.3 h
CL/F ([3]; male, Sprague Dawley, rat, plasma, sc, 10 nmol/kg, dose response, single subcutaneous dose 10 nmol/kg, mean, read-out: CL/F (converted)): 0.163 mL/min/kg
Tmax ([3]; male, Sprague Dawley, rat, plasma, sc, 10 nmol/kg, dose response, single subcutaneous dose 10 nmol/kg, mean, read-out: Tmax): 18 h
half-life ([3]; male, Sprague Dawley, rat, plasma, sc, 30 nmol/kg, dose response, single subcutaneous dose 30 nmol/kg, individual animal): 19.2 h
CL/F ([3]; male, Sprague Dawley, rat, plasma, sc, 30 nmol/kg, dose response, single subcutaneous dose 30 nmol/kg, individual animal, read-out: CL/F (converted)): 0.19 mL/min/kg
half-life ([3]; male, Sprague Dawley, rat, plasma, sc, 30 nmol/kg, dose response, single subcutaneous dose 30 nmol/kg, mean): 19.9 h
CL/F ([3]; male, Sprague Dawley, rat, plasma, sc, 30 nmol/kg, dose response, single subcutaneous dose 30 nmol/kg, mean, read-out: CL/F (converted)): 0.178 mL/min/kg
Tmax ([3]; male, Sprague Dawley, rat, plasma, sc, 30 nmol/kg, dose response, single subcutaneous dose 30 nmol/kg, mean, read-out: Tmax): 18 h
half-life ([3]; male, Sprague Dawley, rat, plasma, sc, 100 nmol/kg, dose response, single subcutaneous dose 100 nmol/kg, individual animal): 16 h
CL/F ([3]; male, Sprague Dawley, rat, plasma, sc, 100 nmol/kg, dose response, single subcutaneous dose 100 nmol/kg, individual animal, read-out: CL/F (converted)): 0.133 mL/min/kg
Tmax ([3]; male, Sprague Dawley, rat, plasma, sc, 100 nmol/kg, dose response, single subcutaneous dose 100 nmol/kg, individual animal, read-out: Tmax): 24 h
half-life ([3]; male, Sprague Dawley, rat, plasma, sc, 100 nmol/kg, dose response, single subcutaneous dose 100 nmol/kg, mean): 16.4 h
CL/F ([3]; male, Sprague Dawley, rat, plasma, sc, 100 nmol/kg, dose response, single subcutaneous dose 100 nmol/kg, mean, read-out: CL/F (converted)): 0.126 mL/min/kg
Tmax ([3]; male, Sprague Dawley, rat, plasma, sc, 100 nmol/kg, dose response, single subcutaneous dose 100 nmol/kg, mean, read-out: Tmax): 24 h
half-life ([3]; male, Sprague Dawley, rat, plasma, sc, 190 nmol/kg, single subcutaneous dose 190 nmol/kg, individual animal): 14.8 h
CL/F ([3]; male, Sprague Dawley, rat, plasma, sc, 190 nmol/kg, single subcutaneous dose 190 nmol/kg, individual animal, read-out: CL/F (converted)): 0.136 mL/min/kg
Tmax ([3]; male, Sprague Dawley, rat, plasma, sc, 190 nmol/kg, single subcutaneous dose 190 nmol/kg, individual animal, read-out: Tmax): 24 h
half-life ([3]; male, Sprague Dawley, rat, plasma, sc, 190 nmol/kg, single subcutaneous dose 190 nmol/kg, mean): 14.4 h
CL/F ([3]; male, Sprague Dawley, rat, plasma, sc, 190 nmol/kg, single subcutaneous dose 190 nmol/kg, mean, read-out: CL/F (converted)): 0.137 mL/min/kg
Tmax ([3]; male, Sprague Dawley, rat, plasma, sc, 190 nmol/kg, single subcutaneous dose 190 nmol/kg, mean, read-out: Tmax): 24 h
AUC0-inf ([3]; rat, plasma, sc, dose response, single subcutaneous dose 10 nmol/kg, male Sprague Dawley rats, mean, read-out: AUC0-inf): 1.04 µM·h
Cmax ([3]; rat, plasma, sc, dose response, single subcutaneous dose 10 nmol/kg, male Sprague Dawley rats, mean, read-out: Cmax): 0.0232 µM
AUC0-inf ([3]; rat, plasma, sc, dose response, single subcutaneous dose 30 nmol/kg, male Sprague Dawley rats, mean, read-out: AUC0-inf): 2.84 µM·h
Cmax ([3]; rat, plasma, sc, dose response, single subcutaneous dose 30 nmol/kg, male Sprague Dawley rats, mean, read-out: Cmax): 0.0607 µM
AUC0-inf ([3]; rat, plasma, sc, dose response, single subcutaneous dose 100 nmol/kg, male Sprague Dawley rats, mean, read-out: AUC0-inf): 13.3 µM·h
Cmax ([3]; rat, plasma, sc, dose response, single subcutaneous dose 100 nmol/kg, male Sprague Dawley rats, mean, read-out: Cmax): 0.294 µM
AUC0-inf ([3]; rat, plasma, sc, single subcutaneous dose 190 nmol/kg, male Sprague Dawley rats, mean, read-out: AUC0-inf): 23.2 µM·h
Cmax ([3]; rat, plasma, sc, single subcutaneous dose 190 nmol/kg, male Sprague Dawley rats, mean, read-out: Cmax): 0.508 µM
AUC0-inf ([3]; rat, plasma, male Sprague Dawley rats, single intravenous dose 190 nmol/kg, Mean, read-out: AUC0-inf): 50 µM·h
C0 ([3]; rat, plasma, male Sprague Dawley rats, single intravenous dose 190 nmol/kg, Mean, read-out: C0): 2.92 µM
AUC0-inf [3, 16]: 23.4 µM·h and 21.6 µM·h and 24.7 µM·h
CL/F [3, 16]: 0.147 mL/min/kg and 0.128 mL/min/kg
Cmax [3, 16]: 0.466 µM and 0.475 µM and 0.582 µM
T1/2 [3, 16]: 13.9 h and 14.5 h
